Assay results: PubChem BioAssay AID330 (DTP/NCI, 2004)
“And” between values parts separate entries of the source, which are not always exact repeats. Equal entries are not always repeated. Toxic doses and inconclusive results are not listed.

System: P388 leukemia ip, CD2F1 mice, survival T/C
Experiment: NCI In Vivo Anticancer Drug Screen. Data for tumor model P388 Leukemia (intraperitoneal) in CD2F1 (CDF1) mice
Details: endpoint: median survival time, higher = longer survival
Method in brief: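 Mice carrying the transplanted tumor received test compound or vehicle. Survival was recorded in each group, and the value is the treated-group measurement divided by that of the vehicle-treated control group.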

[1] = dose: 50.0 mg/kg/injection, schedule: Q01DX005 (ip), vehicle: Klucel (hydroxypropylcellulose) (HPC)
[2] = dose: 100.0 mg/kg/injection, schedule: Q01DX005 (ip), vehicle: Klucel (hydroxypropylcellulose) (HPC)
[3] = dose: 200.0 mg/kg/injection, schedule: Q01DX005 (ip), vehicle: Klucel (hydroxypropylcellulose) (HPC)
[4] = dose: 60.0 mg/kg/injection, schedule: Q01DX005 (ip), vehicle: saline with Tween-80
[5] = dose: 120.0 mg/kg/injection, schedule: Q01DX005 (ip), vehicle: saline with Tween-80
[6] = dose: 240.0 mg/kg/injection, schedule: Q01DX005 (ip), vehicle: saline with Tween-80

c1ccc(C23CN(Cc4ccccc42)Cc2ccccc23)cc1 was tested, and the T/C (dose: 100.0 mg/kg/injection, schedule: Q01DX001 (ip), vehicle: saline with Tween-80) was 95 % of control and the T/C (dose: 200.0 mg/kg/injection, schedule: Q01DX001 (ip), vehicle: saline with Tween-80) was 88 % of control.

In the case of Cc1ccc(S(=O)(=O)OC2C(OCc3ccccc3)C(OCc3ccccc3)C3CON(C)C32)cc1 (stereo unspecified), the T/C [1] was 86 % of control, the T/C [2] was 89 % of control and the T/C [3] was 92 % of control.

Cc1ccc(C(SCC(N)C(=O)O)(c2ccccc2)c2ccc(C)cc2)cc1 (stereo unspecified) was tested, and the T/C (dose: 50.0 mg/kg/injection, schedule: Q04DX003 (ip), vehicle: saline with Tween-80) was 186 % of control, the T/C (dose: 100.0 mg/kg/injection, schedule: Q04DX003 (ip), vehicle: saline with Tween-80) was 200 % of control and the T/C (dose: 132.0 mg/kg/injection, schedule: Q04DX003 (ip), vehicle: saline with Tween-80) was 172 % of control. The T/C (dose: 200.0 mg/kg/injection, schedule: Q04DX003 (ip), vehicle: saline with Tween-80) was 177 % of control and 200 % of control and the T/C (dose: 300.0 mg/kg/injection, schedule: Q04DX003 (ip), vehicle: saline with Tween-80) was 263 % of control.

With Cn1c2ccccc2c(=O)c2cc(NC(=O)CCCCC(=O)Nc3ccc4c(c3)c(=O)c3ccccc3n4C)ccc21 the T/C [4] was 101 % of control, the T/C [5] was 107 % of control and the T/C [6] was 101 % of control.

With CCCc1cc(=O)[nH]c(SCC(=O)O)n1 the T/C [4] was 100 % of control, the T/C [5] was 101 % of control and the T/C [6] was 99 % of control.

With CNC(=O)c1ccccc1NC(=O)c1ccccc1[N+](=O)[O-] the T/C (dose: 100.0 mg/kg/injection, schedule: Q04DX002 (ip), vehicle: Klucel (hydroxypropylcellulose) (HPC)) was 102 % of control, the T/C (dose: 200.0 mg/kg/injection, schedule: Q04DX002 (ip), vehicle: Klucel (hydroxypropylcellulose) (HPC)) was 107 % of control and the T/C (dose: 400.0 mg/kg/injection, schedule: Q04DX002 (ip), vehicle: Klucel (hydroxypropylcellulose) (HPC)) was 103 % of control.

In the case of COc1cc(/C=C2\N=C(c3cccc(C)c3)OC2=O)ccc1O, the T/C (dose: 50.0 mg/kg/injection, schedule: Q01DX009 (ip), vehicle: saline with Tween-80) was 91 % of control, the T/C (dose: 100.0 mg/kg/injection, schedule: Q01DX009 (ip), vehicle: saline with Tween-80) was 100 % of control and the T/C (dose: 200.0 mg/kg/injection, schedule: Q01DX009 (ip), vehicle: saline with Tween-80) was 99 % of control.

With O=C(C[N+]12CN3CN(CN(C3)C1)C2)c1ccc2c(c1)CCCC2 the T/C [1] was 100 % of control, the T/C [2] was 103 % of control and the T/C [3] was 106 % of control.

For CCOP(=O)(CSc1ccccc1)NC1CCCCC1 (stereo unspecified), the T/C (dose: 25.0 mg/kg/injection, schedule: Q01DX005 (ip), vehicle: Klucel (hydroxypropylcellulose) (HPC)) was 94 % of control, the T/C [1] was 94 % of control and the T/C [2] was 88 % of control.

For COC(=O)Nc1c2c(nc3ccccc13)-c1ccccc1C(C)(C)C2OC (stereo unspecified), the T/C [1] was 99 % of control, the T/C [2] was 108 % of control and the T/C [3] was 104 % of control.

For C[C@@H]1C[C@@H]2OC(=O)[C@]3(C)[C@H]2[C@@H](OC3(C)O)[C@]2(C)C(=O)C=C[C@@H]12 (stereo partly specified), the T/C (dose: 4.25 mg/kg/injection, schedule: Q01DX009 (ip), vehicle: Klucel (hydroxypropylcellulose) (HPC)) was 104 % of control, the T/C (dose: 8.5 mg/kg/injection, schedule: Q01DX009 (ip), vehicle: Klucel (hydroxypropylcellulose) (HPC)) was 102 % of control and 109 % of control and the T/C (dose: 17.0 mg/kg/injection, schedule: Q01DX009 (ip), vehicle: Klucel (hydroxypropylcellulose) (HPC)) was 119 % of control and 120 % of control.

O=Nc1c2cc3ccccc3[nH]c-2c2ccccc12 was tested, and the T/C (dose: 50.0 mg/kg/injection, schedule: Q01DX005 (ip), vehicle: saline with Tween-80) was 101 % of control, the T/C (dose: 100.0 mg/kg/injection, schedule: Q01DX005 (ip), vehicle: saline with Tween-80) was 93 % of control and the T/C (dose: 200.0 mg/kg/injection, schedule: Q01DX005 (ip), vehicle: saline with Tween-80) was 97 % of control.

O=[N+]([O-])c1ccc(/C=N/N2CCNC2=S)o1 was tested, and the T/C (dose: 25.0 mg/kg/injection, schedule: Q01DX009 (ip), vehicle: Klucel (hydroxypropylcellulose) (HPC)) was 100 % of control, the T/C (dose: 50.0 mg/kg/injection, schedule: Q01DX009 (ip), vehicle: Klucel (hydroxypropylcellulose) (HPC)) was 101 % of control and the T/C (dose: 100.0 mg/kg/injection, schedule: Q01DX009 (ip), vehicle: Klucel (hydroxypropylcellulose) (HPC)) was 100 % of control. For the same compound, the T/C (dose: 200.0 mg/kg/injection, schedule: Q01DX009 (ip), vehicle: Klucel (hydroxypropylcellulose) (HPC)) was 100 % of control.
